Legend:
Format in all cases: in vivo
Chenopodium album [1] = assay: Test Example 1 upland field foliage treatment; conditions: Table 4, upland field foliage treatment, index 0-5
Procedure, shortened: (§1)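 Post-emergence foliar spray, 1 kg a.i./ha, wettable powder diluted in water, applied 14 d after sowing in upland soil. Rating 21 d post-application, 0–5 scale: 5 ≥90%, 4 70–<90%, 3 50–<70%, 2 30–<50%, 1 10–<30%, 0 <10% effect or injury.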

Digitaria adscendens [2] = assay: Test Example 1 upland field foliage treatment; conditions: Table 4, upland field foliage treatment, index 0-5
Procedure, shortened: as §1

Setaria viridis [3] = assay: Test Example 1 upland field foliage treatment; conditions: Table 4, upland field foliage treatment, index 0-5
Procedure, shortened: as §1

Stellaria media [4] = assay: Test Example 1 upland field foliage treatment; conditions: Table 4, upland field foliage treatment, index 0-5
Procedure, shortened: as §1

soybean (Glycine max) [5] = assay: Test Example 1 upland field foliage treatment, crop phytotoxicity; conditions: Table 4, upland field foliage treatment, index 0-5
Procedure, shortened: as §1

[6] = tested on: wheat (Triticum aestivum); assay: as above; conditions: Table 4, upland field foliage treatment, index 0-5
Procedure, shortened: as §1

Chenopodium album [7] = assay: Test Example 2 upland soil treatment; conditions: Table 5, upland soil treatment, index 0-5
Procedure, shortened: (§2)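 Seeds are sown into upland soil and covered by roughly 1 cm of soil, then the compound, formulated as a wettable powder and diluted with water, is applied uniformly to the soil surface the following day at 1 kg active ingredient per hectare. Herbicidal effect or phytotoxicity is graded 0 to 5 after 21 days.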

Digitaria adscendens [8] = assay: Test Example 2 upland soil treatment; conditions: Table 5, upland soil treatment, index 0-5
Procedure, shortened: as §2

Setaria viridis [9] = assay: Test Example 2 upland soil treatment; conditions: Table 5, upland soil treatment, index 0-5
Procedure, shortened: as §2

Stellaria media [10] = assay: Test Example 2 upland soil treatment; conditions: Table 5, upland soil treatment, index 0-5
Procedure, shortened: as §2

soybean (Glycine max) [11] = assay: Test Example 2 upland soil treatment, crop phytotoxicity; conditions: Table 5, upland soil treatment, index 0-5
Procedure, shortened: as §2

[12] = tested on: wheat (Triticum aestivum); assay: as above; conditions: Table 5, upland soil treatment, index 0-5
Procedure, shortened: as §2

Ammannia multiflora = assay: Test Example 3 paddy field treatment; conditions: Table 6, paddy field treatment, active ingredient 1 kg per hectare, 21st day after dropping, index 0-5
Procedure, shortened: (§3)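 Scoring used a 0–5 scale of herbicidal effect or phytotoxicity, from <10% to ≥90%, taken 21 days after treatment. Treatment was 1 kg a.i./ha as diluted wettable powder dripped onto 4 cm-deep flooded pots sown with the weeds, 10 days after transplanting two-leaf Koshihikari rice.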

Echinochloa crusgalli = assay: Test Example 3 paddy field treatment; conditions: Table 6, paddy field treatment, active ingredient 1 kg per hectare, 21st day after dropping, index 0-5
Procedure, shortened: as §3

Monochoria vaginalis = assay: Test Example 3 paddy field treatment; conditions: Table 6, paddy field treatment, active ingredient 1 kg per hectare, 21st day after dropping, index 0-5
Procedure, shortened: as §3

Scirpus juncoides = assay: Test Example 3 paddy field treatment; conditions: Table 6, paddy field treatment, active ingredient 1 kg per hectare, 21st day after dropping, index 0-5
Procedure, shortened: as §3

Rice (Oryza sativa) = assay: Test Example 3 paddy field treatment, crop phytotoxicity; conditions: Table 6, paddy field treatment, transplanted rice, active ingredient 1 kg per hectare, 21st day after dropping, index 0-5
Procedure, shortened: as §3

SMILES | Herbicidal activity CA: Chenopodium album (Chenopodium album [1]) | Herbicidal activity DA: Digitaria adscendens (Digitaria adscendens [2]) | Herbicidal activity SV: Setaria viridis (Setaria viridis [3]) | Herbicidal activity SM: Stellaria media (Stellaria media [4]) | Herbicidal activity (phytotoxicity) GM: Soybean (Glycine max) (soybean (Glycine max) [5]) | Herbicidal activity (phytotoxicity) TA: Wheat (Triticum aestivum) [6] | Herbicidal activity CA: Chenopodium album (Chenopodium album [7]) | Herbicidal activity DA: Digitaria adscendens (Digitaria adscendens [8]) | Herbicidal activity SV: Setaria viridis (Setaria viridis [9]) | Herbicidal activity SM: Stellaria media (Stellaria media [10]) | Herbicidal activity (phytotoxicity) GM: Soybean (Glycine max) (soybean (Glycine max) [11]) | Herbicidal activity (phytotoxicity) TA: Wheat (Triticum aestivum) [12] | Herbicidal activity AM (Ammannia multiflora) | Herbicidal activity EC (Echinochloa crusgalli) | Herbicidal activity MV (Monochoria vaginalis) | Herbicidal activity SJ (Scirpus juncoides) | Herbicidal activity (phytotoxicity) OS (Rice (Oryza sativa))
CNC(=O)C(Cn1cc(C)c(-c2ccc(OC(F)F)cc2)n1)=NOC [Compound 65] | 5 (herbicidal effect of not less than 90%, or phytotoxicity of 90% or more) | 5 (herbicidal effect of not less than 90%, or phytotoxicity of 90% or more) | 5 (herbicidal effect of not less than 90%, or phytotoxicity of 90% or more) | 5 (herbicidal effect of not less than 90%, or phytotoxicity of 90% or more) | 0 (herbicidal effect of not less than 0% and less than 10%, or phytotoxicity of 0% or more and less than 10%) | 0 (herbicidal effect of not less than 0% and less than 10%, or phytotoxicity of 0% or more and less than 10%) | 5 (herbicidal effect of not less than 90%, or phytotoxicity of 90% or more) | 5 (herbicidal effect of not less than 90%, or phytotoxicity of 90% or more) | 5 (herbicidal effect of not less than 90%, or phytotoxicity of 90% or more) | 5 (herbicidal effect of not less than 90%, or phytotoxicity of 90% or more) | 0 (herbicidal effect of not less than 0% and less than 10%, or phytotoxicity of 0% or more and less than 10%) | 0 (herbicidal effect of not less than 0% and less than 10%, or phytotoxicity of 0% or more and less than 10%) | 5 (herbicidal effect of not less than 90%, or phytotoxicity of 90% or more) | 5 (herbicidal effect of not less than 90%, or phytotoxicity of 90% or more) | 5 (herbicidal effect of not less than 90%, or phytotoxicity of 90% or more) | 5 (herbicidal effect of not less than 90%, or phytotoxicity of 90% or more) | 0 (herbicidal effect of not less than 0% and less than 10%, or phytotoxicity of 0% or more and less than 10%)
CNC(=O)C(Cn1cc(C)c(-c2ccc(OC(F)(F)CF)cc2)n1)=NOC [Compound 67] | 5 (herbicidal effect of not less than 90%, or phytotoxicity of 90% or more) | 5 (herbicidal effect of not less than 90%, or phytotoxicity of 90% or more) | 4 (herbicidal effect of not less than 70% and less than 90%, or phytotoxicity of 70% or more and less than 90%) | 4 (herbicidal effect of not less than 70% and less than 90%, or phytotoxicity of 70% or more and less than 90%) | 0 (herbicidal effect of not less than 0% and less than 10%, or phytotoxicity of 0% or more and less than 10%) | 0 (herbicidal effect of not less than 0% and less than 10%, or phytotoxicity of 0% or more and less than 10%) | 5 (herbicidal effect of not less than 90%, or phytotoxicity of 90% or more) | 4 (herbicidal effect of not less than 70% and less than 90%, or phytotoxicity of 70% or more and less than 90%) | 4 (herbicidal effect of not less than 70% and less than 90%, or phytotoxicity of 70% or more and less than 90%) | 5 (herbicidal effect of not less than 90%, or phytotoxicity of 90% or more) | 0 (herbicidal effect of not less than 0% and less than 10%, or phytotoxicity of 0% or more and less than 10%) | 0 (herbicidal effect of not less than 0% and less than 10%, or phytotoxicity of 0% or more and less than 10%) | 4 (herbicidal effect of not less than 70% and less than 90%, or phytotoxicity of 70% or more and less than 90%) | 5 (herbicidal effect of not less than 90%, or phytotoxicity of 90% or more) | 5 (herbicidal effect of not less than 90%, or phytotoxicity of 90% or more) | 5 (herbicidal effect of not less than 90%, or phytotoxicity of 90% or more) | 0 (herbicidal effect of not less than 0% and less than 10%, or phytotoxicity of 0% or more and less than 10%)
CNC(=O)C(Cn1cc(C)c(-c2ccc(F)c(OC)c2)n1)=NOC [Compound 77] | 5 (herbicidal effect of not less than 90%, or phytotoxicity of 90% or more) | 5 (herbicidal effect of not less than 90%, or phytotoxicity of 90% or more) | 3 (herbicidal effect of not less than 50% and less than 70%, or phytotoxicity of 50% or more and less than 70%) | 3 (herbicidal effect of not less than 50% and less than 70%, or phytotoxicity of 50% or more and less than 70%) | 0 (herbicidal effect of not less than 0% and less than 10%, or phytotoxicity of 0% or more and less than 10%) | 0 (herbicidal effect of not less than 0% and less than 10%, or phytotoxicity of 0% or more and less than 10%) | 5 (herbicidal effect of not less than 90%, or phytotoxicity of 90% or more) | 5 (herbicidal effect of not less than 90%, or phytotoxicity of 90% or more) | 4 (herbicidal effect of not less than 70% and less than 90%, or phytotoxicity of 70% or more and less than 90%) | 5 (herbicidal effect of not less than 90%, or phytotoxicity of 90% or more) | 0 (herbicidal effect of not less than 0% and less than 10%, or phytotoxicity of 0% or more and less than 10%) | 0 (herbicidal effect of not less than 0% and less than 10%, or phytotoxicity of 0% or more and less than 10%) | 5 (herbicidal effect of not less than 90%, or phytotoxicity of 90% or more) | 5 (herbicidal effect of not less than 90%, or phytotoxicity of 90% or more) | 5 (herbicidal effect of not less than 90%, or phytotoxicity of 90% or more) | 5 (herbicidal effect of not less than 90%, or phytotoxicity of 90% or more) | 0 (herbicidal effect of not less than 0% and less than 10%, or phytotoxicity of 0% or more and less than 10%)
CNC(=O)C(Cn1cc(C)c(-c2ccc(Cl)cc2F)n1)=NOC [Compound 81] | 5 (herbicidal effect of not less than 90%, or phytotoxicity of 90% or more) | 5 (herbicidal effect of not less than 90%, or phytotoxicity of 90% or more) | 5 (herbicidal effect of not less than 90%, or phytotoxicity of 90% or more) | 5 (herbicidal effect of not less than 90%, or phytotoxicity of 90% or more) | 0 (herbicidal effect of not less than 0% and less than 10%, or phytotoxicity of 0% or more and less than 10%) | 0 (herbicidal effect of not less than 0% and less than 10%, or phytotoxicity of 0% or more and less than 10%) | 5 (herbicidal effect of not less than 90%, or phytotoxicity of 90% or more) | 5 (herbicidal effect of not less than 90%, or phytotoxicity of 90% or more) | 5 (herbicidal effect of not less than 90%, or phytotoxicity of 90% or more) | 5 (herbicidal effect of not less than 90%, or phytotoxicity of 90% or more) | 1 (herbicidal effect of not less than 10% and less than 30%, or phytotoxicity of 10% or more and less than 30%) | 0 (herbicidal effect of not less than 0% and less than 10%, or phytotoxicity of 0% or more and less than 10%) | 5 (herbicidal effect of not less than 90%, or phytotoxicity of 90% or more) | 5 (herbicidal effect of not less than 90%, or phytotoxicity of 90% or more) | 5 (herbicidal effect of not less than 90%, or phytotoxicity of 90% or more) | 5 (herbicidal effect of not less than 90%, or phytotoxicity of 90% or more) | 0 (herbicidal effect of not less than 0% and less than 10%, or phytotoxicity of 0% or more and less than 10%)

— patent US7192906B2, “Substituted pyrazole derivatives, production process thereof, and herbicide compositions containing the derivatives” (SDS Biotech K.K., priority 2001, dated 2007)
